The source of these data is publication PMC6175062, “Gaining Mechanistic Insight Into Coproporphyrin I as Endogenous Biomarker for OATP1B‐Mediated Drug–Drug Interactions Using Population Pharmacokinetic Modeling and Simulation” (Clinical Pharmacology and Therapeutics, 2018).

Where “and” joins values, the source holds several entries; their conditions need not be identical. Equal values may be shown once. Read-outs that look alike come from different tables or passages of the source.

The subject of one data set is OATP. As to conditions: cited from earlier work.
Data set [1] can be described thus: Population PK model of rosuvastatin plasma and urine data with/without rifampicin. In kind it is in vivo, human. As for the experimental part: (§1) Individual plasma and urine data were obtained from a previous study in 12 healthy male subjects.6 The study was split into three occasions (OCC1–3) with a 7‐day washout period between OCC1 and 2 and OCC2 and 3. During each occasion, baseline CPI urine and plasma samples were collected (Figure S2). A single 600‐mg oral dose of RIF and a single 5‐mg oral dose of RSV were administered to the volunteers in OCC1 and OCC2, respectively. Finally, in OCC3 the same respective doses of RIF and RSV were coadministered to healthy volunteers. Plasma (RIF, RSV, and CPI) were collected at predefined timepoints over the 24‐h period following administration of RIF and/or RSV. Urine samples were collected over one time interval (−7 to 0 h) for the pretreatment sample (CPI monitored) and two subsequent intervals (0–7 h and 7–24 h) for posttreatment samples of CPI and RSV. The total number of plasma samples for modeling purposes were 276 (OCC1 = 144, OCC3 = 132), 420 (OCC1 = 144, OCC2 = 144, OCC3 = 132), and 264 (OCC2 = 132, OCC3 = 132) for RIF, CPI, and RSV, respectively, whereas the total number of urine samples were 102 (pretreatment = 34, posttreatment = 68) and 44 for CPI and RSV, respectively. No subjects enrolled in the clinical study had OATP1B1*5 or OATP1B1*15 mutations, associated with altered OATP1B1 activity.
(§2) Population PK models were developed sequentially for analysis of RIF, CPI, and RSV plasma and urine data using nonlinear mixed‐effects modeling software, NONMEM, with first‐order conditional estimation method.32 Statistical analysis, GOF plots, and other graphical analysis were conducted in MATLAB. The structural models for RIF and RSV (Supplementary Material) were selected based on population PK models available in the literature.34, 35 An exponential model was used to describe interindividual variability random‐effects parameters and IOV was evaluated for the model parameters; occasions were defined as periods of different visits following recruitment or washout periods. Covariates and random‐effects parameters (IIV and IOV) were retained in the models when there was a significant change in objective function and improvement in GOF plots. The incorporation of IIV and IOV in the models is shown in Equation 2: (2) θik=θ⋅e^ηi+κik where θ ik is the parameter for i^th individual on k^th occasion, θ is the population (typical individual) parameter, η i is the parameter that describes the deviation of the i^th individual parameter from the population (IIV), and k ik the parameter that describes the deviation of the i^th individual from the population in addition to η ik at the k^th occasion (IOV). Both random effect parameters (η ik and k ik) are assumed to be randomly distributed with a mean of zero and the variances are estimated during analysis. Proportional or additive or combination of proportional and additive residual error models were investigated for the residuals.
Based on the available plasma and urine data, a two compartment first order absorption and elimination model was used to describe the PK of RSV in the subjects. The model was parameterised using [picture] , volume of distribution of central ( [picture] ) and peripheral compartments ( [picture] ), inter-compartmental clearance ( [picture] ), biliary ( [picture] ) and renal ( [picture] ) clearance parameters. Analogous to CPI, inhibition of [picture] by RIF was incorporated in the rate of change of RSV plasma concentration, whereas it was assumed that RIF has no effect on RSV renal elimination (Eq 2). The rate of change of RSV amount in urine over time is shown in Eq3.
where [picture] and [picture] are RSV concentrations in central (plasma) and peripheral compartments, [picture] is the amount in depot compartment, [picture] is RSV amount in the urine and [picture] is RIF transporter inhibition constant using RSV as a probe. […]

Data set [2] can be described thus: Analysis of individual clinical CPI and rosuvastatin data (baseline, AUCR, fT). The data set is classed as in vivo, human. As to conditions: for mean fraction eliminated via transporters (fT): from AUC with/without RIF (Equation 1). As for the experimental part: as §1
Variability in baseline CPI plasma concentration between the three occasions was assessed and a one‐way analysis of variance (ANOVA) test was used to determine any significant differences. CPI and RSV plasma concentrations in the presence/absence of RIF were used to calculate the area under the curve (AUC) using the trapezoid function in MATLAB (MathWorks, Natick, MA, 2015a). Subsequently, the fold change in RSV and CPI AUC of each individual and the fraction eliminated by transporters (fT) for each probe was calculated (Equation 1). (1) fT=1−AUC(control)/AUC(+inhibitor)

Data set [3] in a line: Population PK (turnover) model of CPI plasma and urine data with/without rifampicin. In kind it is in vivo, human. As for the experimental part:
as §1, §2
The plasma concentrations of the endogenous biomarker CPI were described using a turnover model (Equation 3).36 Simultaneous fitting of individual CPI plasma and urine data in the presence and absence of RIF was performed. In the final model, RIF inhibited biliary elimination (CL b,CPI) of CPI, whereas its renal clearance (CL R,CPI) and k syn were not affected. The rate of change of CPI plasma concentration under baseline and RIF condition is shown in Equations 3 and 4, respectively, whereas change in CPI amount in urine over time is shown in Equation 5. (3) dCCPI/dt=[ksyn−CLb,CPI⋅CCPI−CLR,CPI⋅CCPI]⋅1/VCPI (4) dCCPI/dt=[ksyn−CLb,CPI⋅CCPI/1+CRIF/KiCPI−CLR,CPI⋅CCPI]⋅1/VCPI (5) dUCPI/dt=CLR,CPI⋅CCPI where C CPI is its plasma concentration, U CPI is the CPI amount in urine, t is time, k syn is the zero‐order synthesis rate, Ki CPI is RIF transporter inhibition constant using CPI as a probe, V CPI is the volume of distribution of CPI and C RIF is RIF plasma concentration (linked to RIF model). […]

Consider `CCC(C)n1ncn(-c2ccc(N3CCN(c4ccc(OCC5COC(Cn6cncn6)(c6ccc(Cl)cc6Cl)O5)cc4)CC3)cc2)c1=O` (stereo not shown) [Itraconazole], for which, in the data set on OATP (inhibitor 200 mg, rosuvastatin 0.025 mg, ref (15)), the “Fold Change in AUC of rosuvastatin” value is given as 1.78 fold.
Consider `C=C[C@@H]1C[C@]1(NC(=O)[C@@H]1C[C@@H](Oc2ncc(OC)c3ccc(Cl)cc23)CN1C(=O)[C@@H](NC(=O)OC(C)(C)C)C(C)(C)C)C(=O)NS(=O)(=O)C1CC1` [Asunaprevir], for which, in the data set with OATP (inhibitor 200 mg, rosuvastatin 10 mg, ref (14)), the “Fold Change in AUC of rosuvastatin” value is reported as 1.41 fold.
With `CC(C)c1nc(N(C)S(C)(=O)=O)nc(-c2ccc(F)cc2)c1/C=C/[C@@H](O)C[C@@H](O)CC(=O)O` [RSV, rosuvastatin], in data set [1] (RSV alone), the “QRSV, population estimate (SE%)” value was 45.3 (19) L/h; the “V1RSV, population estimate (SE%)” value was 430 (12) L; the “V2RSV, population estimate (SE%)” value is on record as 865 (37) L. In addition, in data set [1] (co-administered with RIF), the “QRSV (RIF), population estimate (SE%)” value was 5.03 (18) L/h; the “V1RSV (RIF), population estimate (SE%)” value was 2.98 (50) L; the “V2RSV (RIF), population estimate (SE%)” value is on record as 128 (42) L. Besides, in data set [1] (in vivo), the “contribution of biliary clearance to elimination” value is recorded as 94% and the “reduction of V1RSV in the presence of RIF” value is on record as more than 90%. Moreover, in data set [1] (male, human, in vivo, 5 mg), the CL renal was 141 mL/min and the “CLb,RSV, population estimate (SE%)” value is 124 (11) L/h. Moreover, in data set [1] (single 5-mg oral dose), the “kaRSV, population estimate (SE%)” value is recorded as 0.287 (9) h^−1. In addition, the “change in Cmax (fold increase) following RIF” value in data set [2] (RIF 600 mg co-administered) was 13.2 fold. For the same compound, the “range of estimated individual fT” value in data set [2] (from AUC with/without RIF) is 0.66–0.88. The “mean fraction eliminated via transporters (fT)” value in data set [2] came out at 0.79.
In the case of `Cc1cnc(C(=O)N[C@H]2CCCCC/C=C\[C@@H]3C[C@@]3(C(=O)NS(=O)(=O)C3CC3)NC(=O)[C@@H]3C[C@@H](Oc4nc5ccccc5c5ccccc45)CN3C2=O)cn1` [Paritaprevir], the “Fold Change in AUC of rosuvastatin” value in the data set with OATP (inhibitor 150 mg, rosuvastatin 10 mg, ref (17)) is reported as 2.6 fold.
`COC[C@H]1C[C@@H](c2ncc(-c3ccc4c(c3)COc3cc5c(ccc6nc([C@@H]7CC[C@H](C)N7C(=O)[C@@H](NC(=O)OC)C(C)C)[nH]c65)cc3-4)[nH]2)N(C(=O)[C@H](NC(=O)OC)c2ccccc2)C1` [Velpatasvir]: the “Fold Change in AUC of rosuvastatin” value in the data set with OATP (inhibitor 100 mg, rosuvastatin 10 mg, ref (18)) is on record as 2.69 fold.
Turning to coproporphyrin I [CPI], the “maximal contribution of biliary clearance to total clearance” value in data set [3] (basal conditions) is > 85% and 88%. Besides, in data set [3] (baseline), the “VCPI, population estimate (SE%)” value was 6.59 (12) L. Further, the “ksyn (zero-order synthesis rate), population estimate (SE%)” value in data set [3] (endogenous CPI) is 12.7 (6) nM/h. In addition, the “VCPI (RIF), population estimate (SE%)” value in data set [3] (in the presence of RIF) is recorded as 3.4 (13) L. For the same compound, in data set [3] (in vivo), the “CLR,CPI (renal clearance), population estimate (SE%)” value was 1.64 (6) L/h and the “reduction of estimated VCPI in the presence of RIF” value is given as approximately 50%. The “mean fraction eliminated via transporters (fT)” value in data set [2] is given as 0.76.
For the compound `CC[C@H]1OC(=O)[C@H](C)[C@@H](O[C@H]2C[C@@](C)(OC)[C@@H](O)[C@H](C)O2)[C@H](C)[C@@H](O[C@@H]2O[C@H](C)C[C@H](N(C)C)[C@H]2O)[C@](C)(OC)C[C@@H](C)C(=O)[C@H](C)[C@@H](O)[C@]1(C)O` [Clarithromycin], the “Fold Change in AUC of rosuvastatin” value in the data set with OATP (inhibitor 500 mg, rosuvastatin 0.025 mg, ref (15)) is on record as 1.56 fold.
For the compound `COc1ccc2c(O[C@@H]3C[C@H]4C(=O)N[C@]5(C(=O)NS(=O)(=O)C6CC6)C[C@H]5/C=C\CCCCN(C)C(=O)[C@@H]4C3)cc(-c3nc(C(C)C)cs3)nc2c1C` [Simeprevir], the “Fold Change in AUC of rosuvastatin” value in the data set with OATP (inhibitor 150 mg, rosuvastatin 10 mg, ref (19)) is 2.8 fold.
In the case of `C=C[C@@H]1C[C@]1(NC(=O)[C@@H]1C[C@@H]2CN1C(=O)[C@H](C(C)(C)C)NC(=O)O[C@@H]1C[C@H]1CCCCCc1nc3ccc(OC)cc3nc1O2)C(=O)NS(=O)(=O)C1CC1.O` [Grazoprevir], the “Fold Change in AUC of rosuvastatin” value with OATP (inhibitor 200 mg, rosuvastatin 10 mg, ref (16)) is given as 1.59 fold.
